In US8058306B2, “Phenyl pyrrole aminoguanidine derivatives” (Action Pharma A/S, priority 2006, dated 2011):

Tests used:
human MC3 receptor = target: T1, human MC3 receptor (Homo sapiens, UniProt P41968); experiment: [125I]-NDP-MSH radio-ligand binding, MC3 (h) receptor (recombinant CHO cells); conditions: 60 min/37° C.
T1 construct: expressed in transfected cells; host or cells: CHO cells
Procedure: (§1) Determination of binding affinities for MC receptors was performed by [^125I]-[Nle4,D-Phe7]α-MSH ([^125I]-NDP-MSH) radio-ligand binding. In short, murine B16-F1 melanoma cells expressing MC1, but not other MC receptors, were used for binding affinity studies against the murine MC1 receptor (Siegrist et al.; 1988, J. Recept. Res., 8(1-4):323-43). For human MC3, MC4 and MC5 receptor affinities human recombinant CHO cells were used (Schioth et al. 1997, Neuropeptides 31:565-71, 1997). Cells were suspended in HEPES buffer and by use of microwell plates radio-ligands, as well as test compound, in the concentration range of 10^−10 to 10^−6 were added. After incubation at 37° C. (22° C. for the MC1 receptor assay) separation of bound and free [^125I]-NDP-MSH was done by multiple washings with buffer.
(§2) The results were expressed as a percent of control specific binding obtained in the presence of the test compounds. The IC50 values (concentration causing a half-maximal inhibition of control specific binding) and Hill coefficients (nH) were determined by non-linear regression analysis of the competition curves using Hill equation curve fitting. The inhibition constants (Ki) were calculated from the Cheng Prusoff equation (Ki=IC50/(1+(L/KD)), where L=concentration of radio-ligand in the assay, and KD=affinity of the radio-ligand for the receptor).

IL10 = experiment: Inhibition of LPS-induced IL10 production in rats; type: in vivo, rat; conditions: for Serum IL10 measured 120 after initiation of LPS infusion: mean ± SE, N = 6; for dose level of maximal effect (IL10): doses tested 0.1, 1.0, 5.0 mg/kg i.v.; for reduction of serum level of IL10 compared to vehicle treatment: 5.0 mg/kg dose level
Procedure: (§3) Experimental animals. Female Wistar rats (˜250 g) were obtained from the Charles River, Sulzfeld, Germany, and housed in a temperature- (22-24° C.) and moisture-controlled (40-70%) room with a 12 h light-dark cycle (light on from 6:00 A.M. to 6:00 P.M.). The rats were maintained on a standard rodent diet with 140 mmol/kg of sodium, 275 mmol/kg potassium and 23% protein (Altromin International, Lage, Germany) and had free access to water.
(§4) Animal preparation. […] After instrumentation, the animals were housed individually for 7-10 days until the day of the experiment.
(§5) Experimental protocol. Prior to the experiments all rats were adapted to the restraining cage used for the experiments by training. On the day of the experiment, the animal were transferred to a restraining cage, and an intravenous infusion of vehicle solution containing 150 mM glucose was started. The infusion rate was 0.5 ml/h throughout the experiment. After a short adaptation period, infusion of lipopolysaccharide (LPS) was started. LPS (E. coli serotype 0127 B8, L 3129, Sigma, St. Louis, USA) was given at a dose of 4 mg/kg body weight delivered as an i.v. infusion over 1 hour.
(§6) Arterial blood samples of 0.3 ml were taken 120 minutes after start of the LPS infusion.
(§7) In addition to LPS infusion all rats were treated with a bolus injection of:
(§8) Vehicle (0.5 mL 20% PEG200) or test compound in one of the following doses:
(§9) 0.1; 1.0; 5.0 mg/kg given intravenously 5 min prior to initiation of the LPS infusion.
(§10) Test compounds: Compound 1 of the invention (FIG. 1A, structure no. 1), compound 2 of the invention (FIG. 1D, structure no. 19) and compound 3 of the invention (FIG. 1I, structure no. 53).
(§11) Measurement of TNF-α and IL-10 in plasma: The blood samples were collected in a prechilled test tube with 0.5 mM EDTA, pH 7.4, and 20×10^6 IU/ml aprotinin. After centrifugation at 4° C., plasma samples were transferred to pre-chilled test tubes and stored at −20° C. for later measurements of TNF-α and IL-10. TNF-α and Il-10 in plasma were determined by an ELISA (Biotrak, Amersham, UK).
(§12) Statistical analyses. Results are presented as means±SE. A two-way ANOVA for repeated measures was used to test for differences between groups. In case of P<0.05, the differences between corresponding periods are evaluated by unpaired t-tests with Bonferroni's correction of the level of significance.

murine MC1 receptor = target: T2, murine MC1 receptor (Mus musculus, UniProt Q01727); experiment: [125I]-NDP-MSH radio-ligand binding, MC1 receptor (B16-F1 melanoma cells); conditions: 90 min/22° C.
T2 construct: murine B16-F1 melanoma cells expressing MC1, but not other MC receptors, were used; endogenous in cells; host or cells: murine B16-F1 melanoma cells
T2 sequence (Q01727 whole entry): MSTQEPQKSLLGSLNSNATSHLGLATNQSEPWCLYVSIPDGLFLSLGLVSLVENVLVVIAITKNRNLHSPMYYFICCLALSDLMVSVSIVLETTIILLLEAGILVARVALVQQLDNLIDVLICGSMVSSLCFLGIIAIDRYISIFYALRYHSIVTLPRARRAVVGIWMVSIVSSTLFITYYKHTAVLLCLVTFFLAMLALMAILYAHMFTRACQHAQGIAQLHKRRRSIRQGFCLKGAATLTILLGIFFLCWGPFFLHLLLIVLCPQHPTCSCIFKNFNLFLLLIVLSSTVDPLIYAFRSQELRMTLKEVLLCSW
Procedure: as §1, §2

TNF-α = experiment: Inhibition of LPS-induced TNF-α production in rats; type: in vivo, rat; conditions: for Serum TNF-α measured 120 after initiation of LPS infusion: mean ± SE, N = 6; for reduction of serum level of TNF-α compared to vehicle treatment: 5.0 mg/kg dose level, 120 min after initiation of LPS infusion
Procedure: as §3, §4, §5, §6, §7, §8, §9, §10, §11, §12

human MC4 receptor = target: T3, human MC4 receptor (Homo sapiens, UniProt P32245); experiment: [125I]-NDP-MSH radio-ligand binding, MC4 (h) receptor (recombinant CHO cells); conditions: 120 min/37° C.
T3 construct: expressed in transfected cells; host or cells: CHO cells
T3 sequence (P32245 whole entry): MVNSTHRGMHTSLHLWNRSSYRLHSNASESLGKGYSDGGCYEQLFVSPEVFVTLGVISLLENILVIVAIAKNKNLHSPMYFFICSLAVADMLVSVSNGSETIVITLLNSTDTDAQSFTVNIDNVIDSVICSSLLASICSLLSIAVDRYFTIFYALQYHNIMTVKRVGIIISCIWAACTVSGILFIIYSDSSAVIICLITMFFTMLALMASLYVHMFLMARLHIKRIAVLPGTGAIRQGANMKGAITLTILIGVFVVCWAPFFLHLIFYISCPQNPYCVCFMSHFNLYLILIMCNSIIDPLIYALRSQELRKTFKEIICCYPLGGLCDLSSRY
Procedure: as §1, §2

human MC5 receptor = target: T4, human MC5 receptor (Homo sapiens, UniProt P33032); experiment: [125I]-NDP-MSH radio-ligand binding, MC5 (h) receptor (recombinant CHO cells); conditions: 60 min/37° C.
T4 construct: expressed in transfected cells; host or cells: CHO cells
T4 sequence (P33032 whole entry): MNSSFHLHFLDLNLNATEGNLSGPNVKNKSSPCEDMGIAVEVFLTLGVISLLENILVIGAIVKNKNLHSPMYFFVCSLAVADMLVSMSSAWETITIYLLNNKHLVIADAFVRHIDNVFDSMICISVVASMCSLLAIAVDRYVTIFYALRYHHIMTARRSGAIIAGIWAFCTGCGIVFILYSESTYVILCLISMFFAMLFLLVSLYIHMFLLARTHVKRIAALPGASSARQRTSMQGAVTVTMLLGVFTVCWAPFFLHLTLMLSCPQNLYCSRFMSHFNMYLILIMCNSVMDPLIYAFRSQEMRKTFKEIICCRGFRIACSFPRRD
Procedure: as §1, §2

[1] = 0.1 mg/kg i.v. 5 min prior to LPS
[2] = 1.0 mg/kg i.v. 5 min prior to LPS
[3] = 5.0 mg/kg i.v. 5 min prior to LPS
[4] = 120 min after initiation of LPS infusion

T1 sequence (P41968 whole entry): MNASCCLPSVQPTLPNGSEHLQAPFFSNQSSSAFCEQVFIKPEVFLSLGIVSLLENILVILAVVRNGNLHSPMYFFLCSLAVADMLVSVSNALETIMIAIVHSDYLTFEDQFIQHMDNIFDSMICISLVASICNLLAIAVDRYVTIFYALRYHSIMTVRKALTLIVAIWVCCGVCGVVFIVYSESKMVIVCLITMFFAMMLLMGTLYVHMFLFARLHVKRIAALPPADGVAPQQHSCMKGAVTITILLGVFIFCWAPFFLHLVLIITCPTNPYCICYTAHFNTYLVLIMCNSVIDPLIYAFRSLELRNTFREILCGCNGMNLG

Row | Ki (human MC3 receptor) | Ki (murine MC1 receptor) | Ki (human MC4 receptor) | Ki (human MC5 receptor) | SMILES | Serum IL10 measured 120 after initiation of LPS infusion (IL10; [1]) | reduction of IL10 response compared to vehicle treatment (IL10; 1.0 mg/kg dose level, 120 min after initiation of LPS infusion) | Serum IL10 measured 120 after initiation of LPS infusion (IL10; [2]) | Serum IL10 measured 120 after initiation of LPS infusion (IL10; [3]) | dose level of maximal effect (IL10) (IL10) | Serum TNF-α measured 120 after initiation of LPS infusion (TNF-α; [1]) | Serum TNF-α measured 120 after initiation of LPS infusion (TNF-α; [2]) | reduction of serum level of TNF-α compared to vehicle treatment (TNF-α) | Serum TNF-α measured 120 after initiation of LPS infusion (TNF-α; [3]) | reduction of serum level of IL10 compared to vehicle treatment (IL10; [4]) | dose level of maximal anti-inflammatory effect (TNF-α) (TNF-α; doses tested 0.1, 1.0, 5.0 mg/kg i.v.)
1 | 630 nM | 2.6 nM | 300 nM | > 1000 nM | N=C(N)NN=CC=Cc1cccn1-c1ccccc1Br [Compound 3, [1-(2-bromophenyl)-1H-pyrrol-2-yl-allylideneamino]guanidinium acetate] | 5658 ± 1119 pg/mL | ~55% | 3452 ± 1091 pg/mL | 3856 ± 973 pg/mL | 1.0 mg/kg | 10310 ± 2728 pg/mL | 5250 ± 1113 pg/mL | ~60% | 5020 ± 862 pg/mL |  | 
2 | > 1000 nM | 88 nM | 620 nM | > 1000 nM | N=C(N)NN=CC=Cc1cccn1-c1ccc(Cl)cc1 [Compound 1, [1-(4-chlorophenyl)-1H-pyrrol-2-yl-allylideneamino]guanidinium acetate] | 8485 ± 960 pg/mL |  | 5978 ± 890 pg/mL | 5651 ± 325 pg/mL | 5.0 mg/kg | 10830 ± 4031 pg/mL | 6230 ± 1786 pg/mL | ~60% | 5800 ± 703 pg/mL | ~25% | 
3 | > 1000 nM | 360 nM | > 1000 nM | > 1000 nM | N=C(N)NN=CC=Cc1cccn1-c1ccccc1[N+](=O)[O-] [Compound 2, [1-(2-nitrophenyl)-1H-pyrrol-2-yl-allylideneamino]guanidinium acetate] | 7606 ± 1313 pg/mL |  | 4770 ± 1387 pg/mL | 4053 ± 894 pg/mL | 5.0 mg/kg | 5964 ± 957 pg/mL | 6130 ± 601 pg/mL |  | 8380 ± 2694 pg/mL | ~46% | 0.1 mg/kg
